According to US10689354B2, “Aminoazole derivative” (Teijin Pharma Limited, priority 2015, dated 2020):

Assays:
[1] = target: T1, androgen receptor (AR-LBD) (Rattus norvegicus, UniProt P15207); test: Evaluation of androgen receptor affinity (PolarScreen Androgen Receptor Competitor Assay Kit, Red; fluorescence polarization); settings: 22° C. for 5 hours, relative to binding rate of 1 μM DHT, read-out: AR affinity (pEC50) (converted)
T1 construct: 5 μL of 2×AR-LBD/Fluoromone AL Red Complex contained in the kit; purchased Invitrogen
T1 sequence (P15207 651-882 limits assumed): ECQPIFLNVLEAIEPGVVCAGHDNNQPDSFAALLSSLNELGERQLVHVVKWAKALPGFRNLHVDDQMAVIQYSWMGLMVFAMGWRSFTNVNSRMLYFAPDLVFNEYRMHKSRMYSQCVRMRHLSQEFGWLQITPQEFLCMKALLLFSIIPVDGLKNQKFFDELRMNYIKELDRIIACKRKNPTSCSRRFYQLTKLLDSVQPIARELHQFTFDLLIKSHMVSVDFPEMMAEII
Outline: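 Fluorescence polarization read-out after 5 h at 22° C of compound with a red-fluorophore-labelled AR-LBD complex. Displacement is scaled against 1 μM DHT, and the log reciprocal of the concentration reaching half that effect gives pEC50 via four-parameter curve fitting.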

human androgen receptor = target: T2, human androgen receptor (Homo sapiens, UniProt P10275); test: Reporter assay of an androgen receptor responsive sequence (luciferase, transiently transfected HEK293 cells); type: cell-based; settings: 24 hours incubation, relative to activity of 100 nM DHT, read-out: AR transcriptive activity (pEC50) (converted)
T2 construct: expressed in transfected cells; host or cells: HEK293
T2 sequence (P10275 1-920): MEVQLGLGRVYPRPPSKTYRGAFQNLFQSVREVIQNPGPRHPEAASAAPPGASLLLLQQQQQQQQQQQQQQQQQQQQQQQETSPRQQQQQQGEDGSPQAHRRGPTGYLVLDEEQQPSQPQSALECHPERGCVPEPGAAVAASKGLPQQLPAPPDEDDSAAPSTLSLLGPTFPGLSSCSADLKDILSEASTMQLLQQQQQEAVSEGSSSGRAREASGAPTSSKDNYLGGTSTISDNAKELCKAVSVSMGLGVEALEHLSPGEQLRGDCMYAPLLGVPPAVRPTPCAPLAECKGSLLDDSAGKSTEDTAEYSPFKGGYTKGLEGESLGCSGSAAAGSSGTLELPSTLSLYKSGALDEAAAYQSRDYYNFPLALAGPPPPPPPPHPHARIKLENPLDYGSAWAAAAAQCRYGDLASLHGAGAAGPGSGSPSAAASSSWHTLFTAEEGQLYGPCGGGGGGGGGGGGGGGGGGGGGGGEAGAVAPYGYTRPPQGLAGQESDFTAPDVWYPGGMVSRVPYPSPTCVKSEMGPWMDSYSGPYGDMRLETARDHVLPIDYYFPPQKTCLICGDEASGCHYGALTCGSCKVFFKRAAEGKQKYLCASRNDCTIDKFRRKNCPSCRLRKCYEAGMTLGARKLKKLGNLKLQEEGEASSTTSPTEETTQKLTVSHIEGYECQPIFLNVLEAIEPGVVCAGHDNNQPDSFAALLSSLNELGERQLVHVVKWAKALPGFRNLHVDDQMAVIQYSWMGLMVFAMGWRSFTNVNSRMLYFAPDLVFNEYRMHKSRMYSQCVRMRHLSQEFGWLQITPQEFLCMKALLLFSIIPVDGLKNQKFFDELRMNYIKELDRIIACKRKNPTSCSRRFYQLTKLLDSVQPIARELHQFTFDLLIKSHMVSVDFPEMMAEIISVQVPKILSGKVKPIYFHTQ
Outline: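 HEK293 cells transiently transfected for 3 h with ARE-firefly luciferase, full-length human AR and TK-Renilla plasmids, then exposed to compound for 24 h at 37 °C in 5% charcoal-treated FBS/DMEM. Dual-Glo luminescence read; pEC50 from 4-parameter fit relative to 100 nM DHT.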

EC50 [1] [µM] | EC50 (human androgen receptor) [µM] | Structure (SMILES)
0.158 | 0.794 | Cc1sc(N(Cc2ccc(-c3ccccc3F)nc2)c2ccc(C#N)cc2)nc1C(=O)NS(C)(=O)=O [Compound 591, 2-[4-cyano-N-[[6-(2-fluorophenyl)-3-pyridyl]methyl]anilino]-5-methyl-N-methylsulfonyl-thiazole-4-carboxamide]
0.126 | > 10 | Cc1sc(N(CCc2ccccc2Cl)Cc2ccccc2)nc1C(=O)NS(C)(=O)=O [Example 303, 2-[benzyl-[2-(2-chlorophenyl)ethyl]amino]-5-methyl-N-methylsulfonyl-thiazole-4-carboxamide]
0.0316 | 0.0251 | CS(=O)(=O)NC(=O)c1nc(N(Cc2ccc(Cl)cc2)c2ccc(C#N)cc2)sc1Br [Example 248, 5-bromo-2-[N-[(4-chlorophenyl)methyl]-4-cyano-anilino]-N-methylsulfonyl-thiazole-4-carboxamide]
0.0501 | 0.316 | Cc1sc(N(CCc2cccc(F)c2)Cc2ccccc2)nc1C(=O)NS(C)(=O)=O [Compound 685, 2-[benzyl-[2-(3-fluorophenyl)ethyl]amino]-5-methyl-N-methylsulfonyl-thiazole-4-carboxamide]
0.631 | > 10 | CS(=O)(=O)NC(=O)c1nc(N(Cc2ccc(C(F)(F)F)cn2)c2ccc(C#N)cc2)oc1C1CC1 [Compound 649, 2-[4-cyano-N-[[5-(trifluoromethyl)-2-pyridyl]methyl]anilino]-5-cyclopropyl-N-methylsulfonyl-oxazole-4-carboxamide]
0.0501 | 1.58 | COc1ccc(CCN(Cc2ccccc2)c2nc(C(=O)NS(C)(=O)=O)c(C)s2)cc1 [Compound 678, 2-[benzyl-[2-(4-methoxyphenyl)ethyl]amino]-5-methyl-N-methylsulfonyl-thiazole-4-carboxamide]
0.2 | 2.51 | Cc1sc(N(CCc2cccs2)Cc2ccccc2)nc1C(=O)NS(C)(=O)=O [Example 310, 2-[benzyl-[2-(2-thienyl)ethyl]amino]-5-methyl-N-methylsulfonyl-thiazole-4-carboxamide]
0.0501 | 0.0251 | CS(=O)(=O)NC(=O)c1nc(N(Cc2cc3ccccc3s2)c2ccc(C#N)cc2)sc1Cl [Example 280, 2-[N-(benzothiophen-2-ylmethyl)-4-cyano-anilino]-5-chloro-N-methylsulfonyl-thiazole-4-carboxamide]
0.0398 | 0.0501 | CS(=O)(=O)NC(=O)c1nc(N(Cc2ccc3occc3c2)c2ccc(C#N)cc2)sc1Br [Example 221, 2-[N-(benzofuran-5-ylmethyl)-4-cyano-anilino]-5-bromo-N-methylsulfonyl-thiazole-4-carboxamide]
0.2 | 1.58 | COCCOc1ccc(CN(c2ccc(C#N)cc2)c2nc(C(=O)NS(C)(=O)=O)c(C)s2)cc1 [Compound 566, 2-[4-cyano-N-[[4-(2-methoxyethoxy)phenyl]methyl]anilino]-5-methyl-N-methylsulfonyl-thiazole-4-carboxamide]

Continued, compound first:

Structure (SMILES) | EC50 [1] [µM] | EC50 (human androgen receptor) [µM]
Cc1sc(N(Cc2ccccc2)c2ccc(C#N)cc2)nc1C(=O)NS(=O)(=O)Cc1cccnc1 [Compound 397, 2-(N-benzyl-4-cyano-anilino)-5-methyl-N-(3-pyridylmethylsulfonyl)thiazole-4-carboxamide] | 0.0631 | 0.126
Cc1sc(N(Cc2ccc(F)c(F)c2)c2ccc(C#N)cc2)nc1C(=O)NS(C)(=O)=O [Compound 97, 2-[4-cyano-N-[(3,4-difluorophenyl)methyl]anilino]-5-methyl-N-methylsulfonyl-thiazole-4-carboxamide] | 0.0501 | 0.0316
Cc1sc(N(Cc2ccc(F)cc2Cl)c2ccc(C#N)cc2)nc1C(=O)NS(C)(=O)=O [Compound 106, 2-[N-[(2-chloro-4-fluoro-phenyl)methyl]-4-cyano-anilino]-5-methyl-N-methylsulfonyl-thiazole-4-carboxamide] | 0.0794 | 0.316
Cc1sc(N(Cc2ccc3ncccc3c2)c2ccc(C#N)cc2)nc1C(=O)NS(C)(=O)=O [Compound 403, 2-[4-cyano-N-(6-quinolylmethyl)anilino]-5-methyl-N-methylsulfonyl-thiazole-4-carboxamide] | 0.251 | 0.251
Cc1sc(N(CCc2ccc(OC(F)(F)F)cc2)Cc2ccc(C#N)cc2)nc1C(=O)NS(C)(=O)=O [Compound 506, 2-[(4-cyanophenyl)methyl-[2-[4-(trifluoromethoxy)phenyl]ethyl]amino]-5-methyl-N-methylsulfonyl-thiazole-4-carboxamide] | 0.0251 | > 10
Cc1oc(N(CCc2ccc(OC(F)(F)F)cc2)Cc2ccc(C(F)(F)F)nc2)nc1C(=O)NS(C)(=O)=O [Compound 562, 5-methyl-N-methylsulfonyl-2-[2-[4-(trifluoromethoxy)phenyl]ethyl-[[6-(trifluoromethyl)-3-pyridyl]methyl]amino]oxazole-4-carboxamide] | 0.0398 | 0.794
COCCCS(=O)(=O)NC(=O)c1nc(N(Cc2ccc(OC(F)F)nc2)c2ccc(C#N)cc2)sc1C [Compound 525, 2-[4-cyano-N-[[6-(difluoromethoxy)-3-pyridyl]methyl]anilino]-N-(3-methoxypropylsulfonyl)-5-methyl-thiazole-4-carboxamide] | 0.0501 | 0.631
Cc1sc(N(CCC2CCCC(O)C2)c2ccc(C#N)cc2)nc1C(=O)NS(C)(=O)=O (centres unmarked) [Compound 442, 2-[4-cyano-N-[2-(3-hydroxycyclohexyl)ethyl]anilino]-5-methyl-N-methylsulfonyl-thiazole-4-carboxamide] | 0.316 | 1.26
Cc1sc(N(Cc2ccc(F)cn2)c2ccc(C#N)cc2)nc1C(=O)NS(C)(=O)=O [Compound 517, 2-[4-cyano-N-[(5-fluoro-2-pyridyl)methyl]anilino]-5-methyl-N-methylsulfonyl-thiazole-4-carboxamide] | 0.316 | 0.631
Cc1sc(N(Cc2ccccc2)c2ccc(C#N)c(C(F)(F)F)c2)nc1C(=O)NS(C)(=O)=O [Compound 451, 2-[N-benzyl-4-cyano-3-(trifluoromethyl)anilino]-5-methyl-N-methylsulfonyl-thiazole-4-carboxamide] | 0.0251 | 0.0501
COc1cccc(CCN(c2ccc(C#N)cc2)c2nc(C(=O)NS(C)(=O)=O)c(C)s2)c1 [Compound 399, 2-[4-cyano-N-[2-(3-methoxyphenyl)ethyl]anilino]-5-methyl-N-methylsulfonyl-thiazole-4-carboxamide] | 0.251 | > 10
Cc1sc(N(Cc2cccc(C#N)c2)c2ccc(C#N)cc2)nc1C(=O)NS(C)(=O)=O [Compound 9, 2-[4-cyano-N-[(3-cyanophenyl)methyl]anilino]-5-methyl-N-methylsulfonyl-thiazole-4-carboxamide] | 0.1 | 0.398
Cc1sc(N(Cc2cccc(C(F)F)c2)c2ccc(C#N)cc2)nc1C(=O)NS(C)(=O)=O [Compound 450, 2-[4-cyano-N-[[3-(difluoromethyl)phenyl]methyl]anilino]-5-methyl-N-methylsulfonyl-thiazole-4-carboxamide] | 0.0316 | 0.0501
Cc1sc(N(CCc2ccc(C#N)cc2)Cc2ccc(Cl)cc2)nc1C(=O)NS(=O)(=O)Cc1cccc(F)c1 [Compound 322, 2-[(4-chlorophenyl)methyl-[2-(4-cyanophenyl)ethyl]amino]-N-[(3-fluorophenyl)methylsulfonyl]-5-methyl-thiazole-4-carboxamide] | 0.0631 | > 10
Cc1sc(N(Cc2cccc(F)c2)c2ccc(C#N)cc2)nc1C(=O)NS(C)(=O)=O [Compound 14, 2-[4-cyano-N-[(3-fluorophenyl)methyl]anilino]-5-methyl-N-methylsulfonyl-thiazole-4-carboxamide] | 0.0794 | 0.0501
